Test results as given in patent US7364842B2, “Methods of identifying modulators of human retrovirus replication” (IRM, LLC, priority 2003, dated 2008).

Assays:
[1] = tested on: Moloney murine leukemia virus (MLV); conditions: background statement; cited from earlier work
[2] = tested on: human immunodeficiency virus (HIV); conditions: Chao et al., J. Biol. Chem. 2000; cited from earlier work
[3] = tested on: Pbx1 protein; assay: Western blot of Pbx1 protein in siRNA-transfected Magi cells; type: cell-based; conditions: Magi cells lysed 48-60 hours after transfection; versus firefly luciferase siRNA control
Text: (§1) The ability of Pbx 1 to mediate transcription of genes of retroviruses that infect human cells was investigated using Magi indicator cells (e.g., Kimpton and Emerman, J. Virol. 66: 2232-2239, 1992). The MAGI (Multinuclear Activation of a Galactosidase Indicator) cell line was derived from parental HeLa cells by introducing genes for CD4 and an HIV-1 LTR-driven β-gal reporter with an amphotropic retrovirus vector. This cell line exploits the ability of HIV-1 tat to transactivate the expression of a β-galactosidase reporter gene driven by the HIV-LTR. […] The β-galactosidase activity was then assessed in the cultures. […] Western blot analysis of Pbx1 siRNA-transfected Magi cells confirmed that levels of Pbx1 protein were reduced in comparison to control cells transfected with firefly luciferase siRNA, which served as a negative control (FIG. 2). […] The γ-tubulin was used as the loading control.

[4] = tested on: HIV-1; conditions: siRNA-transfected Magi cells; versus Scramble siRNA control
Protocol: Magi cells were transiently transfected with an siRNA targeting Pbx1 or Pin1. A Scramble siRNA was used as a negative control. Reverse transcriptase activity was then assessed.
Magi indicator cells were also used to determine the effect of HMG I proteins on the transcription of retroviral genes. Magi cells were transiently transfected with an siRNA targeting HMG I-C or HMG I/Y. A Scramble siRNA was used as a negative control. […] For the western blot analysis, cells were transiently transfected with the siRNAs targeting HMGI/Y (FIG. 9), HMG I-C (FIG. 10) or firefly luciferase (control siRNA). Magi cells were lysed 48-60 hours after transfection and analyzed by western blot using antibodies against HMGI/Y, HMG I-C or γ-tubulin proteins. The γ-tubulin levels were used as the loading controls.

[5] = tested on: HIV-1 LTR-driven β-gal reporter in Magi cells; assay: Magi indicator cell β-galactosidase assay (HIV LTR-mediated gene expression); type: cell-based; conditions: Magi cells transiently transfected with siRNA; versus Scramble siRNA control
Text: as §1

[6] = tested on: HMG I/Y protein; assay: Western blot of HMG I/Y protein in siRNA-treated Magi cells; type: cell-based; conditions: Magi cells lysed 48-60 hours after transfection; versus luciferase siRNA control
[7] = tested on: HMG I-C protein; assay: Western blot of HMG I-C protein in siRNA-treated Magi cells; type: cell-based; conditions: Magi cells lysed 48-60 hours after transfection; versus luciferase siRNA control
[8] = tested on: recombinant HIV; assay: Recombinant HIV assay, luciferase reporter in 293T cells; type: cell-based, HIV-1; conditions: 293T cells transfected with siRNA, infected with recombinant HIV after 24 hours, measured after 48 hrs; versus Scramble siRNA
Protocol: A recombinant HIV assay was used to assess the role of HMG I proteins in HIV replication. Pseudotyped recombinant HIV particles were generated by transient transfection of 293T cells using a three-plasmid expression system (FIGS. 5a and 5b).
A Scramble siRNA was used as a negative control After 24 hours, the transfected cells were infected with recombinant HIV. After 48 hrs, luciferase activity was measured.

Row | Molecule | MLV transcription events [1] | activity of HIV reverse transcriptase [4] | β-gal activity [5] | other results
1 | CC(C)[C@H](CO)Nc1nc(Nc2cccc(Cl)c2)c2ncn(C(C)C)c2n1 [purvalanol A] | block |  |  | 
2 | CN1CC[C@H](c2c(O)cc(O)c3c(=O)cc(-c4ccccc4Cl)oc23)[C@H](O)C1 [flavopiridol] | block |  |  | anti-HIV activity [2]: very potent
3 | AAGCCUGCCUUGUUUAAUGUG (chemistry not given here) [Pbx1 siRNA] |  | greatly reduced | reduced | levels of Pbx1 protein [3]: reduced
4 | AAGUGCCAACACCUAAGAGAC (chemistry not given here) [HMG I/Y] |  | reduced | inhibited | levels of HMG I/Y protein [6]: reduced
5 | methoxy-roscovitine | block |  |  | 
6 | AAGCAGCUCAAAAGAAAGCAG (chemistry not given here) [HMG I-C] |  | reduced | inhibited | levels of HMG I-C protein [7]: reduced; luciferase reporter activity [8]: reduced
